One molecule from US20180312930A1, “METHOD FOR ANALYZING A SAMPLE TO DETECT THE PRESENCE OF SULPHITE-RESISTANT YEASTS OF THE BRETTANOMYCES BRUXELLENSIS SPECIES AND KIT FOR IMPLEMENTING SAME” (UNIVERSITE DE BORDEAUX, priority 2015, published 2018) can be followed below.

Assay in all cases: capacity of strains to grow in the presence of sulphur dioxide
What all share (format): cell-based

Test [1] deals with Brettanomyces bruxellensis strains of the beer triploid group. The settings on record: 14 days of culture, 8 strains tested. On the procedure: (§1) The 33 strains of Brettanomyces bruxellensis are cultivated in a medium in the absence or the presence of different concentrations of sulphur dioxide SO2 in the culture medium (0 mg/L, 0.2 mg/L, 0.4 mg/L and 0.6 mg/L).
(§2) After 14 days of culture, the capacity of the strains to grow in the different media is evaluated.

The subject of test [2] is Brettanomyces bruxellensis strains of the oenological diploid group. The settings on record: 14 days of culture, 17 strains tested. On the procedure:
as §1, §2

For test [3], the system named is Brettanomyces bruxellensis strains of the oenological triploid group. The settings on record: 14 days of culture, 8 strains tested. The method, then: as §1, §2
Where [4] appears, read: 0.2 mg/L active SO2 in the culture medium.
Setting [5] is: 0.4 mg/L active SO2 in the culture medium.
The mark [6] stands for this setting: 0.6 mg/L active SO2 in the culture medium.

In the case of `O=S=O` [sulphur dioxide], the “Number of strains with the capacity to grow” value in test [1] (setting [4]) worked out at 3; in test [1] (setting [5]) it was 0; in test [1] (setting [6]), 0; in test [2] (setting [4]), 6; in test [2] (setting [5]), 1; in test [2] (setting [6]), 0. The figures for the “Number of strains with the capacity to grow” value in test [3] (setting [4]), in test [3] (setting [5]) and in test [3] (setting [6]) were 8, 8 and 4, respectively.
